# Measurements published in EP4664463A1, “COMPUTER-IMPLEMENTED METHOD FOR OLFACTORY PROPERTY PREDICTION” (Givaudan SA, priority 2024, dated 2025).
# Residue numbers refer to the chain shown, from its start. Where two headings read alike, the source gives them in different places.
# Experiments:
# OR7D4 = molecular target: T1, OR7D4 (Homo sapiens, UniProt Q8NG98, D296E/E302K/G299D); assay: cell-based; type: cell-based
# T1 construct: expressed in transfected cells; host or cells: HEK293T cells stably expressing human RTP1S (V227I) and RTP2 (L220R)
# T1 sequence (Q8NG98 with tags, fused parts or gaps D296E/G299D/E302K limits assumed): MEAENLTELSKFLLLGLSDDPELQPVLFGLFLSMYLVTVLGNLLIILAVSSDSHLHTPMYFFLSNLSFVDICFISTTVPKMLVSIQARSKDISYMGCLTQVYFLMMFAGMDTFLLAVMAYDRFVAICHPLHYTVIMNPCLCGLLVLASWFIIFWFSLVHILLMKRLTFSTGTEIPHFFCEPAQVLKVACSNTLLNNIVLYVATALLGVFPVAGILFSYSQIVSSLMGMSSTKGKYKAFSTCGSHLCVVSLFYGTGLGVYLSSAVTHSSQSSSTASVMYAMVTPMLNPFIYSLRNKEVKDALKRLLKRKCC
# Text: (§1) To create an expression plasmid, an OR coding sequence fused at the end of TM7 to the desired C-terminus sequence was synthesized by a DNA synthesis service provider (BioCat GmbH, Germany) and inserted into pcDNA3.1(+) (Invitrogen, MA, USA) downstream of the CMV promoter sequence (SEQ ID NO: 82) using BamHI and Notl restriction sites. All the synthetic OR nucleotide sequences described below in Examples 1-15 further contained at their N-terminus a nucleotide sequence encoding a signal peptide (mmLucy-FLAG-rho, SeQ ID NOs: 80, 81) and at the C-terminus the bgh terminator sequence (SEQ ID NO: 83). All the OR expression plasmids also contain a Kozak sequence (GCCACC) between the BamHI restriction site and the start codon of the signal peptide. These plasmids thus contain a constitutively expressed OR gene.
# Similarly, in Figure 7 the dose-response of OR7D4 is shown when tested both with androstenone and the closely related molecule androstenol. […] Thus, a better understanding of the receptive space of OR7D4 is possible based on the improved sensitivity of the assay provided by the modified variant.
# OR56A4 = molecular target: T2, OR56A4 (Homo sapiens, UniProt Q8NGH8); assay: cell-based; type: cell-based; settings: wild-type
# T2 construct: expressed in transfected cells; host or cells: HEK293T stably expressing human RTP1S(V227I) and RTP2(L220R)
# T2 sequence (Q8NGH8 1-313): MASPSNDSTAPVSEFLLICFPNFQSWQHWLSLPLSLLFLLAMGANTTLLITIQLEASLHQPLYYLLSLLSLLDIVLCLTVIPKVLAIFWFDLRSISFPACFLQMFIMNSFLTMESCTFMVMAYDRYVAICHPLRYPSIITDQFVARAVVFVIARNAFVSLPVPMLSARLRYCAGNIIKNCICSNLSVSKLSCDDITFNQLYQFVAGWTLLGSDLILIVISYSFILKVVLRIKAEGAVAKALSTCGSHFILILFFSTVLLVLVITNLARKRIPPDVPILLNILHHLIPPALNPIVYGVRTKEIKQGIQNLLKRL
# Text: as §1
# Activation of OR56A4 by acids of different chain length was further tested. […] Replacing the wild-type with the C-terminal sequence of the functional OR51 E1 did reduce activity. However, using the optimized sequence form Examples 1-5 led to a strong signal and much lower detection threshold upon addition of all three acids.
# OR2M2 = assay: Activation of modified OR2M2 by sulfur compounds in presence of copper (luciferase); type: cell-based, human; settings: modified C-terminus
# Text: The most pungent odorant in human axillary sweat with an ODT of 1 picogram / L air is 3-methyl-3-sulfanyl-hexanol (also known as 3-methyl-3-mercapto-hexanol) (Natsch et al. identification of Odoriferous Sulfanylalkanols in Human Axilla Secretions and Their Formation through Cleavage of Cysteine Precursors by a C-S Lyase Isolated from Axilla bacteria. […] 2004; 1:1058-1072). So far, no OR has been described which can selectively detect this key odorant leading to undesired axilla odor in human subjects. By screening a library of receptor variants with the C-terminal sequence SEQ ID NO: 86 in presence of copper against a library of 52 sulfur compounds (see example 5), a hitherto orphan receptor, OR2M2, was identified, which is activated by 3-methyl-3-mercapto-hexanol and closely related chemicals, but not by other sulfur odorants (Figure 19).
# OR10J5 [1] = molecular target: T3, OR10J5 (Homo sapiens, UniProt Q8NHC4); assay: cell-based; type: cell-based
# T3 construct: expressed in transfected cells; host or cells: HEK293T cells stably expressing human RTP1S (V227I) and RTP2 (L220R)
# T3 sequence (Q8NHC4 with tags, fused parts or gaps): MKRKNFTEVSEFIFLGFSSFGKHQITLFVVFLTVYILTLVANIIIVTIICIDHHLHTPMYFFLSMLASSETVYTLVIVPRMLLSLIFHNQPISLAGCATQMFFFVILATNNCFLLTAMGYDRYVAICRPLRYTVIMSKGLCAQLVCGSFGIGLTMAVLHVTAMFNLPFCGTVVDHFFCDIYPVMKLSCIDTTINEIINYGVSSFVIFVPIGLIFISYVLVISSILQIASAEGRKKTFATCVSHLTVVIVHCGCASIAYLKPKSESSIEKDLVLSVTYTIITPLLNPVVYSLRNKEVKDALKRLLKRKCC
# Text: as §1
# OR10J5 [2] = molecular target: T4, OR10J5 (Homo sapiens, UniProt Q8NHC4); assay: cell-based; type: cell-based; remark: listed apart in the source
# T4 construct: expressed in transfected cells; host or cells: HEK293T cells stably expressing human RTP1S (V227I) and RTP2 (L220R)
# T4 sequence (Q8NHC4 1-309): T3 sequence (Q8NHC4 with tags, fused parts or gaps) with K301C, L303V, L304V, K305G, K307N, C308I, C309S
# Text: as §1
# OR10J5 [3] = assay: cell-based; type: cell-based, human
# Text: as §1
# OR8K3 [4] = molecular target: T5, OR8K3 (Homo sapiens, UniProt Q8NH51, D295E/Y298D); assay: cell-based; type: cell-based; settings: OR8K3 with SEQ ID NO: 86
# T5 construct: expressed in transfected cells; host or cells: HEK293T cells stably expressing human RTP1S (V227I) and RTP2 (L220R)
# T5 sequence (Q8NH51 with tags, fused parts or gaps D295E/Y298D): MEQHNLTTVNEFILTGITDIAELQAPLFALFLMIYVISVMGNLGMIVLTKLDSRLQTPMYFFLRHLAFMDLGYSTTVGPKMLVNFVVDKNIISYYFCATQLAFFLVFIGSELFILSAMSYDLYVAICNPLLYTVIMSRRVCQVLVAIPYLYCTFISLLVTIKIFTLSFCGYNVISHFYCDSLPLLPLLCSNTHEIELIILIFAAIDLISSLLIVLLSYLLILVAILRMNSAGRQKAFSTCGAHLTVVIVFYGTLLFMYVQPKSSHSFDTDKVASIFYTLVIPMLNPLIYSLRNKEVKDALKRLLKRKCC
# Text: as §1
# (§2) Thus, using the improved sensitivity of the assay provided by the modified variant, activation of OR8K3 by a broader set of mint-smelling molecules can be detected.
# (§3) Knowing the importance of the C-terminal sequence for proper expression as observed in the previous examples, an obvious way to improve expression might be just to provide a hybrid receptor whereby the C-terminal domain in a non-functional or poorly functional receptor is replaced by the C-terminal domain of a functional receptor. […] Thus the C-terminal sequence of OR8K3 was replaced with the C-terminal sequence of the ambrettolide-receptor OR1N2 or the musk receptor OR5AN1. […] Thus the improvement achieved with the modified C-terminal sequences of this disclosure cannot be achieved by simply generating chimeric receptors combining a functional C-terminal domain of a functional receptor with a poorly expressed receptor.
# OR8K3 [5] = molecular target: T6, OR8K3 (Homo sapiens, UniProt Q8NH51); assay: cell-based; type: cell-based
# T6 construct: expressed in transfected cells; host or cells: HEK293T cells stably expressing human RTP1S (V227I) and RTP2 (L220R)
# T6 sequence (Q8NH51 1-312): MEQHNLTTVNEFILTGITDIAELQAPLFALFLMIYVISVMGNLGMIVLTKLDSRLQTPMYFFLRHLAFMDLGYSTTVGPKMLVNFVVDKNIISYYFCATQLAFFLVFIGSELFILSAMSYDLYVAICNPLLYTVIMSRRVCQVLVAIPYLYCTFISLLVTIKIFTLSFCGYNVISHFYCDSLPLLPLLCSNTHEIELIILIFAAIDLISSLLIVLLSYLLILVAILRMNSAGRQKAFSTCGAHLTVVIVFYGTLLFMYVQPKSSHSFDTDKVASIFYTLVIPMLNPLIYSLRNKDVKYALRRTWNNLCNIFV
# Text: as §1, §2, §3
structure (smiles),measurement,setting,value
C[C@]12CC[C@@H](O)C[C@@H]1CC[C@@H]1[C@@H]2CC[C@]2(C)C=CC[C@@H]12 [androstenol],activation of OR7D4 wild-type vs modified,OR7D4,can only activate the modified version of the receptor
CCCCCCCCCC(=O)O [decanoic acid],activation of wild-type OR56A4,OR56A4,activated at high concentration
"C=C(C)C1CCC2=CC(=O)CC(C)C2(C)C1 (centres unmarked) [Nootkatone, 5,6-Dimethyl-8-iso-propenylbicyclo-(4,4,0)-dec-1-en-3-one]",activation of OR2M2,OR2M2,activated
CCCCCCCCC(=O)O [nonanoic acid],activation of wild-type OR56A4,OR56A4,not
CCC(CC)C(=O)N(C)c1cccc(C)c1 [Paradisamide],activation of OR2M2,OR2M2,activated
"Cc1cc(CC(C)C)ccc1CCC=O [Nympheal, 3-(4-isobutyl-2-methylphenyl)propanal]",Detection threshold; concentration for 2-fold induction,OR10J5 [1],5.64 µM
same,EC50,"OR10J5 [1]; changed C-term SEQ ID NO: 86, read-out: Potency EC50",6.2 µM
same,Detection threshold; concentration for 2-fold induction,OR10J5 [2],"n.i. (>31 µM, at cytotoxic dose)"
same,EC50,"OR10J5 [2]; wild-type, read-out: Potency EC50",> 31 µM
same,Comments on efficacy,OR10J5 [3],"Only 1.8-fold induction for WT, but 5.5-fold for changed C-terminus"
same,Fold-improvement potency,OR10J5 [3],>>6
same,Fold-improvement threshold,OR10J5 [3],>>6
CC(C)[C@@H]1CC[C@@H](C)CC1=O [menthone],activation of modified receptor variant,OR8K3 [4],"also activating the receptor, although with a lower potency"
same,Detection threshold; concentration for 2-fold induction,OR8K3 [5],> 316 µM
